Values after ≈ are worked out from the molar mass of the structure shown. Like-named read-outs stand apart in the source and are kept apart here.
Assays:
Assay in all cases: MIC, broth microdilution
S. aureus = type: cell-based, Staphylococcus aureus
Procedure: (§1) MICs were determined by the microdilution method according to the Clinical and Laboratory Standards Institute guidelines. […] Finally, the 96-well plates were incubated at 37 °C for 16–20 h to observe and record the results. […] The assay for MICs was replicated at least three times.

H. influenzae = type: cell-based, Haemophilus influenzae
Procedure: as §1

S. pneumoniae = type: cell-based, Streptococcus pneumoniae
Procedure: as §1

S. pyogenes = type: cell-based, Streptococcus pyogenes; settings: S. pyogenes 12-206, c-ermTR
Procedure: as §1

[1] = Staphylococcus aureus, S. aureus 15B196, c-ermB, read-out: MIC
[2] = Staphylococcus aureus, S. aureus PU32, i-ermA, read-out: MIC
[3] = Haemophilus influenzae, ATCC49247, H. influenzae ATCC49247, Azi-S, read-out: MIC
[4] = Streptococcus pneumoniae, ATCC49619, S. pneumoniae ATCC49619, Ery-S, read-out: MIC
[5] = Streptococcus pneumoniae, S. pneumoniae 07P390, c-ermB, read-out: MIC
[6] = Streptococcus pneumoniae, S. pneumoniae PU09, mef, read-out: MIC
[7] = Streptococcus pyogenes, read-out: MIC

Row | SMILES | MIC (S. aureus; [1]) [µg/mL] | MIC (S. aureus; [2]) [µg/mL] | MIC (H. influenzae; [3]) [µg/mL] | MIC (S. pneumoniae; [4]) [µg/mL] | MIC (S. pneumoniae; [5]) [µg/mL] | MIC (S. pneumoniae; [6]) [µg/mL] | MIC (S. pyogenes; [7]) [µg/mL] | MIC (S. aureus; S. aureus 15B196, c-ermB) [µg/mL] | MIC (S. aureus; S. aureus PU32, i-ermA) [µg/mL] | MIC (H. influenzae; H. influenzae ATCC49247, Azi-S) [µg/mL] | MIC (S. pneumoniae; S. pneumoniae 07P390, c-ermB) [µg/mL] | MIC (S. pneumoniae; S. pneumoniae ATCC49619, Ery-S) [µg/mL] | MIC (S. pneumoniae; S. pneumoniae PU09, mef) [µg/mL] | MIC (S. pyogenes) [µg/mL]
1 | CCC1OC(=O)C(C)C(OC(=O)NCCCCCC#Cc2ccc3c(c2)c(=O)c(C(=O)O)cn3C2CC2)C(C)C(OC2OC(C)CC(N(C)C)C2O)C(C)(OC)CC(C)C(=NOC)C(C)C2OC(=O)OC12C (stereo not shown) [57a] | 128 (≈ 127 µM) | 16 (≈ 15.9 µM) | > 256 | 0.25 (≈ 0.248 µM) | 64 (≈ 63.4 µM) | 1 (≈ 0.991 µM) | 32 (≈ 31.7 µM) |  |  |  |  |  |  | 
2 | CCC1OC(=O)C(C)C(OC(=O)NCCCCCC#Cc2ccc3c(=O)c(C(=O)O)cn(C4CC4)c3c2)C(C)C(OC2OC(C)CC(N(C)C)C2O)C(C)(OC)CC(C)C(=NOC)C(C)C2OC(=O)OC12C (stereo not shown) [57c] | 16 (≈ 15.9 µM) | 4 (≈ 3.96 µM) | 8 (≈ 7.93 µM) | ≤ 0.008 | 0.5 (≈ 0.495 µM) | 0.06 (≈ 0.0595 µM) | 1 (≈ 0.991 µM) |  |  |  |  |  |  | 
3 | CC[C@H]1OC(=O)[C@H](C)[C@@H](OC(=O)NCCCCCC#Cc2ccc3c(=O)c(C(=O)NO)cn(C4CC4)c3c2)[C@H](C)[C@@H](O[C@@H]2O[C@H](C)C[C@H](N(C)C)[C@H]2O)[C@](C)(OC)C[C@@H](C)C(=NOC)[C@H](C)[C@H]2OC(=O)O[C@@]21C [57e] |  |  |  |  |  |  |  | 128 (≈ 125 µM) | 16 (≈ 15.6 µM) | 32 (≈ 31.2 µM) | 2 (≈ 1.95 µM) | 0.016 (≈ 0.0156 µM) | 0.5 (≈ 0.488 µM) | 128 (≈ 125 µM)
4 | CC[C@H]1OC(=O)[C@H](C)[C@@H](OC(=O)NCCCCCCC#Cc2ccc3c(=O)c(C(=O)O)cn(C4CC4)c3c2)[C@H](C)[C@@H](O[C@@H]2O[C@H](C)C[C@H](N(C)C)[C@H]2O)[C@](C)(OC)C[C@@H](C)C(=NOC)[C@H](C)[C@H]2OC(=O)O[C@@]21C [58c] |  |  |  |  |  |  |  | 64 (≈ 62.5 µM) | 8 (≈ 7.82 µM) | 32 (≈ 31.3 µM) | 1 (≈ 0.977 µM) | 0.25 (≈ 0.244 µM) | 0.25 (≈ 0.244 µM) | 2 (≈ 1.95 µM)
5 | CC[C@H]1OC(=O)[C@H](C)[C@@H](OC(=O)NCCCCCc2ccc3c(c2)c(=O)c(C(N)=O)cn3C2CC2)[C@H](C)[C@@H](O[C@@H]2O[C@H](C)C[C@H](N(C)C)[C@H]2O)[C@](C)(OC)C[C@@H](C)C(=NOC)[C@H](C)[C@H]2OC(=O)O[C@@]21C [59b] |  |  |  |  |  |  |  | > 256 | 128 (≈ 130 µM) | > 256 | 64 (≈ 65 µM) | 0.25 (≈ 0.254 µM) | 1 (≈ 1.02 µM) | 64 (≈ 65 µM)
6 | CC[C@H]1OC(=O)[C@H](C)[C@@H](OC(=O)NCCCCCCc2ccc3c(c2)c(=O)c(C(N)=O)cn3C2CC2)[C@H](C)[C@@H](O[C@@H]2O[C@H](C)C[C@H](N(C)C)[C@H]2O)[C@](C)(OC)C[C@@H](C)C(=NOC)[C@H](C)[C@H]2OC(=O)O[C@@]21C [60b] |  |  |  |  |  |  |  | > 256 | 128 (≈ 128 µM) | > 256 | 32 (≈ 32.1 µM) | 0.25 (≈ 0.25 µM) | 1 (≈ 1 µM) | 32 (≈ 32.1 µM)

The remaining lines, values ahead:

Row | MIC (S. aureus; [1]) [µg/mL] | MIC (S. aureus; [2]) [µg/mL] | MIC (H. influenzae; [3]) [µg/mL] | MIC (S. pneumoniae; [4]) [µg/mL] | MIC (S. pneumoniae; [5]) [µg/mL] | MIC (S. pneumoniae; [6]) [µg/mL] | MIC (S. pyogenes; [7]) [µg/mL] | MIC (S. aureus; S. aureus 15B196, c-ermB) [µg/mL] | MIC (S. aureus; S. aureus PU32, i-ermA) [µg/mL] | MIC (H. influenzae; H. influenzae ATCC49247, Azi-S) [µg/mL] | MIC (S. pneumoniae; S. pneumoniae 07P390, c-ermB) [µg/mL] | MIC (S. pneumoniae; S. pneumoniae ATCC49619, Ery-S) [µg/mL] | MIC (S. pneumoniae; S. pneumoniae PU09, mef) [µg/mL] | MIC (S. pyogenes) [µg/mL] | SMILES
7 | 256 (≈ 253 µM) | 8 (≈ 7.9 µM) | > 256 | 0.12 (≈ 0.118 µM) | 64 (≈ 63.2 µM) | 0.5 (≈ 0.493 µM) | 32 (≈ 31.6 µM) |  |  |  |  |  |  |  | CCC1OC(=O)C(C)C(OC(=O)NCCCCCCCc2ccc3c(c2)c(=O)c(C(=O)O)cn3C2CC2)C(C)C(OC2OC(C)CC(N(C)C)C2O)C(C)(OC)CC(C)C(=NOC)C(C)C2OC(=O)OC12C (stereo not shown) [61a]
8 |  |  |  |  |  |  |  | > 256 | 64 (≈ 63.2 µM) | > 256 | 16 (≈ 15.8 µM) | 1 (≈ 0.988 µM) | 1 (≈ 0.988 µM) | 16 (≈ 15.8 µM) | CC[C@H]1OC(=O)[C@H](C)[C@@H](OC(=O)NCCCCCCCc2ccc3c(c2)c(=O)c(C(N)=O)cn3C2CC2)[C@H](C)[C@@H](O[C@@H]2O[C@H](C)C[C@H](N(C)C)[C@H]2O)[C@](C)(OC)C[C@@H](C)C(=NOC)[C@H](C)[C@H]2OC(=O)O[C@@]21C [61b]
9 | 64 (≈ 63.2 µM) | 8 (≈ 7.9 µM) | > 256 | ≤ 0.008 | 0.5 (≈ 0.493 µM) | ≤ 0.008 | 2 (≈ 1.97 µM) |  |  |  |  |  |  |  | CCC1OC(=O)C(C)C(OC(=O)NCCCCCCCc2ccc3c(=O)c(C(=O)O)cn(C4CC4)c3c2)C(C)C(OC2OC(C)CC(N(C)C)C2O)C(C)(OC)CC(C)C(=NOC)C(C)C2OC(=O)OC12C (stereo not shown) [61c]
10 | > 256 | 64 (≈ 63.2 µM) | > 256 | 0.12 (≈ 0.119 µM) | 16 (≈ 15.8 µM) | 1 (≈ 0.988 µM) | 16 (≈ 15.8 µM) |  |  |  |  |  |  |  | CCC1OC(=O)C(C)C(OC(=O)NCCCCCCCc2ccc3c(=O)c(C(N)=O)cn(C4CC4)c3c2)C(C)C(OC2OC(C)CC(N(C)C)C2O)C(C)(OC)CC(C)C(=NOC)C(C)C2OC(=O)OC12C (stereo not shown) [61d]

From publication PMC11239830, “Synthetic macrolides overcoming MLSBK-resistant pathogens” (Cell Discovery, 2024)
